Experimental data: BigSolDB 2.1

COc1cccc(C=O)c1O
solubility (mole fraction)
Conditions | 273.15 K | 278.15 K | 283.15 K | 288.15 K | 293.15 K | 298.15 K | 303.15 K
in ethanol | 0.0401 | 0.0526 | 0.0774 | 0.138 | 0.226 | 0.38 | 0.615
in n-propanol | 0.0312 | 0.0388 | 0.0552 | 0.0807 | 0.134 | 0.299 | 0.554
in water | – | 0.000268 | 0.000332 | 0.0004 | 0.000496 | 0.000578 | 0.000786
